Data from paper PMC9653733, “Characterization of a Potent, Selective, and Safe Inhibitor, Ac15(Az8)2, in Reversing Multidrug Resistance Mediated by Breast Cancer Resistance Protein (BCRP/ABCG2)” (International Journal of Molecular Sciences, 2022).
Values joined by “and” are separate entries in the source; they are usually repeats but may differ in a detail not shown here. Equal values may be shown once.

Legend:
[1] = Pharmacokinetics of Ac15(Az8)2 in mice; format: in vivo; settings: female, Balb/c, mouse, ip, 45 mg/kg I.P., plasma
Procedure: (§1) Ac15(Az8)2 and topotecan in plasma were analyzed by UPLC–MS/MS. UPLC (Acquity Waters) and triple quadrupole mass analyzer (Quattro Ultima) with an electrospray ionization source in the positive mode were used to quantify Ac15(Az8)2 and topotecan. Acquity UPLC BEH C8 and C18 column (1.7 µm 2.1 × 50 mm) from Waters was used to separate Ac15(Az8)2 and topotecan, respectively. Mobile phases used for Ac15(Az8)2 analysis were water and acetonitrile. Ac15(Az8)2 and its internal standard Ac15(Az5)2 (Figure S2) were monitored at m/z 608 → m/z 149 and m/z 594 → […], respectively. Mobile phases used for topotecan analysis were water and methanol. Topotecan and its internal standard tetracycline were monitored at m/z 422 → m/z 377 and m/z 445 → m/z 410, respectively.
(§2) Female Balb/c mice at 4–6 weeks were used for the pharmacokinetic studies. Ac15(Az8)2 at 4 mg/mL was prepared in 10% NMP, 10% Cremophor-EL and 80% H2O. Topotecan was dissolved in H2O at 1 mg/mL, and 45 mg/kg Ac15(Az8)2 was administered through intraperitoneal (I.P.) injection. Blood was collected at 10, 30, 60, 70, 90, 120, 180, 240, 300, 480, 720 and 1440 min by cardiac puncture and stored in heparinized tubes for centrifugation at 16,000 g for 5 min. For topotecan pharmacokinetic study, 2 mg/kg topotecan was I.P. administered one hour after 45 mg/kg Ac15(Az8)2 or solvent injection. Blood was collected at 10, 30, 60, 120, 240 and 480 min post-topotecan administration. All animal studies were approved by the Animal Subjects Ethics Sub-committee of the Hong Kong Polytechnic University and performed in accordance with the Cap340 Animal License of the Department of Health in Hong Kong.

[2] = target: T1, P-gp (LCC6MDR cells) (Homo sapiens, UniProt P08183); assay: Reversal of P-gp-mediated paclitaxel resistance in LCC6MDR; format: cell-based; settings: value without asterisk; read-out: EC50 needed for reversing P-gp-mediated paclitaxel resistance, LCC6MDR
T1 construct: expressed in transfected cells; host or cells: LCC6MDR (human breast cancer line)

[3] = test system: S1M180 xenograft
Description: (A) S1 xenograft. (B) S1M180 xenograft. There were 3 treatment groups in S1 and S1M180 xenograft model. Treatments were given as indicated by an arrow (↑). % of tumor volume reduction was compared among different treatment groups on days 55 and 71. a, b, and c = mean tumor volume of solvent control, topotecan alone, and combination treatment groups on day 55, respectively. d and e = mean tumor volume of topotecan alone and combination treatment groups on day 71. (C) Tumor weight of S1M180-bearing mice on termination day. (D) % change of tumor volume and tumor doubling time of S1M180 xenograft were determined on days 55 and 71. […] Number of animal death was monitored during the efficacy study. (E) Body weight of S1M180-bearing mice. (F) To measure plasma and intratumor level of topotecan, S1M180-bearing mice were administered with 45 mg/kg (I.P.) of Ac15(Az8)2 one hour prior to 6 mg/kg (I.P.) of topotecan administration. Five hours after topotecan administration, the mice were sacrificed. Plasma and tumor were collected for analyzing topotecan level using UPLC–MS/MS. Student’s unpaired two-tailed t-test was performed between combination group and topotecan alone group or solvent control group as indicated (* p < 0.05, ** p < 0.01, *** p < 0.001).
Ten million of S1M180 cells were injected subcutaneously into Balb/c nu nu mice (Beijing Vital River Laboratory Animal Technology Co., Ltd., Beijing, China). Mice with solid tumors formed were sacrificed. The tumor was removed and cut into 1 mm^3 and xenografted subcutaneously onto another Balb/c nu nu mouse for passage or efficacy study. Treatment of nude mice started when the xenograft reached 100–150 mm^3. The mice were randomized into 3 groups (n = 7 mice per group). Group (1) was treated with Ac15(Az8)2 solvent (I.P.) and topotecan solvent (I.P.), group (2) was treated with Ac15(Az8)2 solvent (I.P.) and topotecan (2 mg/kg, I.P.), group (3) was treated with Ac15(Az8)2 (45 mg/kg, I.P.) and topotecan (2 mg/kg, I.P.). The formulation used was the same as that of the pharmacokinetic study. S1M180-bearing nude mice were treated for 4 rounds. In each round, they were treated once every two days 6 times, allowed to rest for 7 days, and treated again. […] The body weights of mice were monitored throughout the experiment. Tumor dimensions were measured by an electronic caliper, and the tumor volume was calculated as reported previously.

[4] = test system: BCRP (MCF7-MX100 cells); settings: concentration reducing IC50 of anticancer drug by half; mean ± S.D.; ref [42]; read-out: EC50 needed for reversing BCRP-mediated topotecan resistance, MCF7-MX100; cited from earlier work
[5] = Pharmacokinetics of topotecan in mice with or without Ac15(Az8)2; format: in vivo; settings: female, Balb/c, mouse, plasma, ip, topotecan 2 mg/kg I.P.; for AUC(0-inf) / Cmax / half-life: 2 mg/kg; for half-life: read-out: Half-life (E-phase) of topotecan (converted)
Procedure: as §1, §2

[6] = test system: S1 cells; assay: Cytotoxicity of anticancer drugs in parental S1 (0.1% DMSO); format: cell-based, human
[7] = 45 mg/kg Ac15(Az8)2 + 2 mg/kg topotecan
[8] = 45 mg/kg Ac15(Az8)2 I.P. one hour prior

T1 sequence (P08183 whole entry): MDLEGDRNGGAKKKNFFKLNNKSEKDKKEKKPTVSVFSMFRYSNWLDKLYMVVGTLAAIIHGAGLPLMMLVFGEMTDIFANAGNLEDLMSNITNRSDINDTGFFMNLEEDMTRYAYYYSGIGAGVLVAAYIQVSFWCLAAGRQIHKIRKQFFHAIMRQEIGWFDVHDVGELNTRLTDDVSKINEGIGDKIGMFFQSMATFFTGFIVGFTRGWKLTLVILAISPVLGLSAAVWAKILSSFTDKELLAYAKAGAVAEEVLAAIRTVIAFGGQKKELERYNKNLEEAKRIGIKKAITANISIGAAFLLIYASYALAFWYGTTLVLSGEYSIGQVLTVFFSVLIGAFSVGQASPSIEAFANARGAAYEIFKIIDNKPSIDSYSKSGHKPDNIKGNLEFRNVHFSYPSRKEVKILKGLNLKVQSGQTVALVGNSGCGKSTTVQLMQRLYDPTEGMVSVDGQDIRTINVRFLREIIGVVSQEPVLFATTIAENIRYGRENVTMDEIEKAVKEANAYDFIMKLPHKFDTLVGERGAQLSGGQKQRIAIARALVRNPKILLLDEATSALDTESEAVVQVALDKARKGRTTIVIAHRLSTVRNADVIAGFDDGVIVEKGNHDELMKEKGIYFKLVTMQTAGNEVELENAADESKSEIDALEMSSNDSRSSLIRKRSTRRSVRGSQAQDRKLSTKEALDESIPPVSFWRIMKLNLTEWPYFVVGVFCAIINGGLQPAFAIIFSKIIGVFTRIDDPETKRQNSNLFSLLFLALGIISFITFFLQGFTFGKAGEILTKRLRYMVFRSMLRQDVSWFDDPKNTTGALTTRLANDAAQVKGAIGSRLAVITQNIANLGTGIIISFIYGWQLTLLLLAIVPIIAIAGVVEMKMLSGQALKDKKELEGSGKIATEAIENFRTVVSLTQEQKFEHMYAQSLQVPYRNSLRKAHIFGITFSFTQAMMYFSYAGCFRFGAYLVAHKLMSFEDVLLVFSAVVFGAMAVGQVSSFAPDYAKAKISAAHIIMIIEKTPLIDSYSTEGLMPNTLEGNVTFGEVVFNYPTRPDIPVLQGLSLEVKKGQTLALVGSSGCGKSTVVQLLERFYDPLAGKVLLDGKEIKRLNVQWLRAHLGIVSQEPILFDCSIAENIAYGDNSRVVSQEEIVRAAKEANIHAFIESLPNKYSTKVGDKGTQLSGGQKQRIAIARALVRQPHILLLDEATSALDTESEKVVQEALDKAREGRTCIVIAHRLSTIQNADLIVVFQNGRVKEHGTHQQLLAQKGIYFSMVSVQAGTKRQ

| SMILES | AUC(0-inf) [1] [ng·h/mL] | Cmax [1] [ng/mL] | Tmax [1] [h] | half-life ([1]; read-out: Half-life (E-phase) (converted)) [h] | EC50 [2] [nM] | Lengthening of tumor doubling time by combination treatment vs solvent group [3, 7] [days] | Lengthening of tumor doubling time by combination treatment vs topotecan alone [3, 7] [days] | Reduction of tumor weight by combination treatment vs solvent group ([3]; termination day, p < 0.001) [fold] | Reduction of tumor weight by combination treatment vs topotecan alone ([3]; termination day, p < 0.01) [fold] | EC50 [4] | AUC(0-inf) [5, 8] [ng·h/mL] | Cmax [5, 8] [ng/mL] | half-life [5, 8] [h] | AUC(0-inf) ([5]; Ac15(Az8)2 0 mg/kg (solvent)) [ng·h/mL] | Cmax ([5]; Ac15(Az8)2 0 mg/kg (solvent)) [ng/mL] | half-life ([5]; Ac15(Az8)2 0 mg/kg (solvent)) [h] | Tmax [5, 8] [h] | IC50 ([6]; Homo sapiens, S1 + 0.1% DMSO, mean ± S.D., n = 3, read-out: IC50 of topotecan) [nM] | RF (Relative Fold), topotecan: resistance of S1M180 compared to parental S1 ([6]; S1 + 0.1% DMSO vs S1M180 + 0.1% DMSO) |
| --- | --- | --- | --- | --- | --- | --- | --- | --- | --- | --- | --- | --- | --- | --- | --- | --- | --- | --- | --- |
| COC(=O)c1cccc(COc2c(-c3ccc(OCCOCCn4cc(CN(Cc5ccccc5)Cc5cn(CCOCCOc6ccc(-c7oc8ccccc8c(=O)c7OCc7cccc(C(=O)OC)c7)cc6)nn5)nn4)cc3)oc3ccccc3c2=O)c1 [Ac15(Az8)2] | 83500 | 15700 | 3 | 10.6 | > 3000 | 4.6 | 1.8 | 1.9 | 1.6 | 3 nM and 3.3 nM | – | – | – | – | – | – | – | – | – |
| CC[C@@]1(O)C(=O)OCc2c1cc1n(c2=O)Cc2cc3c(CN(C)C)c(O)ccc3nc2-1 [topotecan] | – | – | – | – | – | – | – | – | – | – | 8700 | 4400 | 1.6 | 4400 | 2900 | 1.3 | 1 | 446 ± 20 | 27.9 |
